Assay results published in patent US11168081B2, “Alkaloid derivative having angiogenesis inhibitory effect, and pharmaceutical composition containing same” (SEOUL NATIONAL UNIVERSITY R&DB FOUNDATION, priority 2017, dated 2021).

Assays:
HUVECs [1] = experiment: In vitro tube formation assay; type: cell-based, human
Procedure: Matrigel (70 μl/well) was coated onto a 96-well plate and polymerized for 30 minutes at 37° C. under a 5% CO2 atmosphere. HUVECs (1.5×10^4 cells/well) and various concentrations of the compound were seeded onto each well of the Matrigel-coated 96-well plate. The cells were then incubated for 8 hours at 37° C. under a 5% CO2 atmosphere. The formation of endothelial cell tubular structures was visualized under an inverted microscope and photographed (Olympus Optical Co. Ltd., Tokyo, Japan). The inhibition rate of tube formation was determined using the following equation. tube formation inhibition rate (%)=[1−(average tube numbersample−average tube numberVEGF(−))/(average tube numberVEGF(+)−average tube numberVEGF(−))]×100 [Equation 1]
The IC50 value was calculated using nonlinear regression analysis using TableCurve 2D v5.01 software (Systat Software Inc., Richmond, Calif., USA).
(§1) The same experiment was carried out for sunitinib as a positive control.
The endothelial cell tubular structure formation assay was performed in the same manner as in the Experimental Example 1.

HUVECs [2] = experiment: HUVEC cell growth assay (MTT); type: cell-based, human; settings: Homo sapiens, HUVEC; MTT, 24 hours, in the presence of VEGF (50 ng/mL)
Procedure: Human umbilical vascular endothelial cells (HUVECs) were obtained from the ATCC (Rockville, Md.) and cultured in EGM-2 (Lonza, Walkersville, Md.) supplemented with 10% FBS at 37° C. under a 5% CO2 atmosphere.
Cell growth was assessed by MTT assay. HUVECs (8×10^3 cells/well) were seeded onto a 96-well plate with EGM-2 medium supplemented with 10% FBS for 24 hours. The next day, the culture medium was removed, and the cells were then incubated with serum-free medium for 12 hours. Following serum starvation, the cells were cultured in fresh 2% FBS/EBM-2 medium containing various concentrations of the test compound for 24 hours in the presence of VEGF (50 ng/mL). After the incubation, an MTT solution was added, and the plate was incubated for additional 4 hours. The formazan product was dissolved in DMSO, and the absorbance was detected at 570 nm using a VersaMax ELISA microplate reader (Molecular Devices, Sunnyvale, Calif.).
as §1

HUVECs [3] = experiment: Scratch wound migration assay; type: cell-based, human; settings: 24 hours, concentration-dependent, FIG. 1
Procedure: The scratch wound migration assay was performed as follows.
HUVECs were allowed to grow at 90% confluence in 12-well plates pre-coated with 0.2% gelatin and were then incubated for 24 hours. After the cells were attached, they were wounded by scratching with a 0.2 mL pipette tip. The plates were then washed with serum-free medium. Fresh medium was replaced with 2% FBS/EBM-2 medium containing various concentrations of the test compound. The cells were incubated for 24 hours, and images were recorded using an inverted phase-contrast light microscope (Olympus Optical Co. Ltd., Tokyo, Japan).

[4] = test system: VEGFR2-mediated PI3K/AKT/eNOS and SRC/FAK signaling pathway; experiment: Biomarker analysis (immunoblot) in VEGF-stimulated HUVECs; type: cell-based, human; settings: FIG. 2
Procedure: The harvested cells were lysed by 2× sample loading buffer (250 mM Tris-HCl, pH 6.8; 4% SDS; 10% glycerol; 0.006% bromophenol blue; 2% β-mercaptoethanol; 50 mM sodium fluoride; and 5 mM sodium orthovanadate). The protein concentration was measured, and equal amounts of protein samples were subjected to 6-15% SDS-PAGE. The separated proteins were transferred to PVDF membranes (Millipore, Bedford, Mass.), which were then incubated with primary antibodies diluted in 2.5% BSA in TBST (1:500-1:1000) overnight at 4° C. The membranes were then washed three times with TBST and incubated with the corresponding secondary antibodies. Protein bands were detected with an enhanced chemiluminescence detection kit (Intron, Daejeon, Korea) and an LAS-4000 Imager (Fuji Film Corp., Tokyo, Japan).
The phosphorylation of VEGFR2 (Tyr1175) affects the activation of PI3K signaling, which leads to an increase in vascular permeability. In the VEGF signaling pathway, SRC kinases are downstream of VEGFR2 and regulate vascular permeability and angiogenesis. The activation of FAK is also an important contributor markedly involved in endothelial cell migration, proliferation and adherends junction integrity.

pKa = type: physicochemical
[5] = Aqueous solubility (pH-metric CheqSol); type: physicochemical; settings: 0.15 M KCl, 25° C.
Procedure: The aqueous solubility was measured by the pH-metric CheqSol technique (Sirius Analytical Instruments Ltd.). Experiments was performed in 0.15 M KCl solution under a nitrogen atmosphere, at 25° C., using standardized 0.5 M HCl and 0.5 M KOH solutions.

MDCK permeability = type: in vitro ADME, canine; settings: dog, MDCK, pH 7.4; 10 μM, apical to basolateral
Procedure: (§2) The permeability was examined using Madin-Darby canine kidney (MDCK) cell line. The MDCK cell line was acquired from the American Type Culture Collection (Manassas, Va.). The cells were seeded in 12 well plates and allowed to grow for 7 days at 37° C. under a 5% CO2 atmosphere. The MDCKI monolayers were equilibrated for 30 minutes in transport buffer (10 mM glucose, 4 mM sodium bicarbonate, HBSS with 1 mM HEPES, pH 7.4) at 37° C. under a 5% CO2 atmosphere prior to the experiment. The permeability of the test compound was examined at 10 μM (with a final DMSO percentage of 1%) in the apical to basolateral (A-to-B) direction. The concentration was analyzed by LC-MS/MS. The apparent permeability (Papp, A-B) was calculated using the following equation 2.
(§3) wherein, dQ/dt is the rate of compound appearance in the receiver compartment (Q is the quantity of compound), C0 is the concentration in the donor compartment, and A is the surface area of the insert.

[6] = test system: Madin-Darby canine kidney (MDCK) cell line; experiment: MDCK permeability; type: in vitro ADME; settings: in words
Procedure: as §2, §3

Plasma stability = type: in vitro ADME, human
Procedure: For measuring plasma stability, the test compound (10 μM) was incubated with human plasma at 37° C. After 30 minutes, the reaction was quenched by adding acetonitrile (containing chlopropamide as internal standard). The samples were vortexed for 5 minutes and centrifuged at 14,000 rpm for 5 minutes at 4° C. Then, the supernatant was analyzed using a LC-MS/MS (Kinetex C18 column, Phenomenex, USA).

Metabolic stability = type: in vitro ADME, human
Procedure: The test compound (1 μM) was incubated with human liver microsomes (HLM, 0.5 mg protein/ml) for 5 minutes at 37° C. in 100 mM potassium phosphate buffer (pH 7.4). The reaction was initiated by adding NADPH solution and incubated for 30 minutes. To terminate the reaction, acetonitrile (containing chlopropamide as internal standard) was added and centrifuged at 14,000 rpm for 5 minutes at 4° C. Then, the supernatant was analyzed using a LC-MS/MS (Kinetex C18 column, Phenomenex, USA).

[7] = test system: Transgenic zebrafish (flk:EGFP) embryos; experiment: Animal model angiogenesis inhibition assay (diabetic retinopathy); type: in vivo; settings: zebrafish larvae
Procedure: Transgenic zebrafish (flk:EGFP) embryos were provided by the Korea Zebrafish Oraganogenesis Muatant Bank (ZOMB, Daegu, Korea). The zebrafish embryos (3 dpf) were placed in a 12-well plate with 130 mM glucose embryonic H2O and various concentrations of the test compound. At 6 dpf, zebrafish larvae were fixed by 4% paraformaldehyde and stored overnight at 4° C. Next, the larvae were washed with distilled H2O, incubated with 10× trypsin (2.5%) for 90 minutes at 37° C. under a 5% CO2 atmosphere, and washed with distilled H2O. Then, the isolated lenses were isolated from the zebrafish larvae. Optic disc (OD) branches were visualized and photographed using a fluorescence microscope (Axiovert 200M, Carl Zeiss, Del.). The diameters of the larvae vessels were measured by ImageJ software.

- pKa (pKa): 9.24
- Aqueous Solubility [5]: 24 µM
- Papp A→B at 10 μM (MDCK permeability): 11 ×10⁻⁶ cm/s
- MDCK cell permeability [6]: high
- plasma stability (Plasma stability; 10 μM, human plasma, 37° C., remaining after 30 minutes): 95%
- plasma stability (Plasma stability; in words): high
- Metabolic Stability (Metabolic stability; 1 μM, human liver microsomes 0.5 mg protein/ml, NADPH, 30 minutes): 31%
- microsomal stability (Metabolic stability; in words, human liver microsomes): good
Compound: CCc1ccc2nc(C(c3ccc(OC)c(OC)c3)n3cc(CCN4CCCCC4)nn3)sc2c1 (stereo not drawn) [Compound I-7, 2-((3,4-dimethoxyphenyl)(4-(2-(piperidin-1-yl)ethyl)-1H-1,2,3-triazol-1-yl)methyl)-6-ethylbenzo[d]thiazole]
- enhancement of tube formation capacity by VEGF (HUVECs [1]; HUVECs, concentration-dependent, FIG. 1): inhibited
- IC50 (HUVECs [1]; Homo sapiens, HUVEC, HUVECs on Matrigel, 8 hours, VEGF-induced tube formation): 0.631 µM
- Selectivity Index (SI) (HUVECs [1]; ratio of the IC50 for HUVEC cell growth to the IC50 for tube formation): 75.3
- IC50 (HUVECs [2]): 47.5 µM
- enhancement of endothelial cell migration by VEGF (HUVECs [3]): inhibited
- activation of SRC (p-SRC)/FAK (p-FAK) ([4]; VEGF-stimulated HUVECs): inhibited
- levels of VEGFR2 (p-VEGFR2) activated by VEGF ([4]; VEGF-stimulated HUVECs): suppressed
- activation of PI3K (p-PI3K), AKT (p-AKT) and eNOS (p-eNOS) ([4]; pretreatment 30 minutes, VEGF (50 ng/mL) 20 minutes): significantly suppressed
- increase in hyaloid vessel diameters induced by HG ([7]; 130 mM glucose, 3 to 6 dpf, concentration-dependent, FIG. 3): suppressed
- hyaloid vessel diameters in the optic disc area ([7]; high glucose, 2.5 μM): markedly reduced
